Patent US20260256792A1, “TREATMENT OF CHRONIC SPONTANEOUS URTICARIA BY ADMINISTERING (R)-2-[3-[4-AMINO-3-(2-FLUORO-4-PHENOXY-PHENYL)PYRAZOLO[3,4-D]PYRIMIDIN-1-YL]PIPERIDINE-1-CARBONYL]-4-METHYL-4-[4-(OXETAN-3-YL)PIPERAZIN-1-YL]PENT-2-ENENITRILE” (priority 2023, published 2026)

Test system: moderate-to-severe chronic spontaneous urticaria (CSU)
Assay: Phase 2 CSU study: itch severity score over 7 days (ISS7)
Format: in vivo, human
Settings: for Change from Baseline in ISS7 at Week 12, LS Mean / Change from Baseline in ISS7 at Week 12, LS Mean Diff vs. placebo / Change from Baseline in ISS7 at Week 12, Mean: Omalizumab-naïve population; for ISS7 change from baseline at Week 12, LS Mean / ISS7 change from baseline at Week 12, LS Mean Diff vs. placebo: ANCOVA
Text: The study comprises a 12 week, randomized, double-blind, placebo-controlled, multi-center, dose-ranging efficacy and safety phase, followed by a 40 week open label extension (OLE) phase (see FIG. 1). The study consists of three phases and an optional OLE phase. […] Clinically, CSU is characterized by the spontaneous and recurrent appearance of pruritic hives. The proposed primary endpoints were the UAS7 at Week 12 in EU and EU reference countries and the ISS7 in the US. Regardless of where a participant was from, all assessments were the same. The UAS7 score is a composite score containing both the HSS7 and the ISS7. This allowed a global assessment of the two key components of urticaria: hives and itch. […] The UAS is a validated PRO measure. […] The daily UAS scores range from 0 to 6 point/day. […] Patients were to complete the UAS using the e-diary. […] The following secondary endpoints were to be analyzed using the same approach as for the primary endpoint: • Change from baseline in UAS7 at Week 4 • Change from baseline in UAS7 at Week 12 (for US and US reference countries) • Change from baseline in ISS7 at Week 12 (except US and US reference countries) • Change from baseline in HSS7 at Week 12

[1] = 400 mg QPM, Duration of disease (years) <2
[2] = 400 mg QPM, Duration of disease (years) >10
[3] = 400 mg QPM, Ethnicity Non-Hispanic
[4] = 400 mg QPM, History of angioedema No
[5] = 400 mg QPM, History of angioedema Yes
[6] = 400 mg QPM, Race All the Others
[7] = 400 mg QPM, Region Eastern Europe
[8] = 400 mg QPM, Region Latin America
[9] = 400 mg QPM, Region Western Countries
[10] = 400 mg QPM, omalizumab-naïve population
[11] = 400 mg QPM, omalizumab-naïve population with outlier removed
[12] = 400 mg TID, Age group (years) <44 (Median)
[13] = 400 mg TID, Age group (years) <65
[14] = 400 mg TID, Age group (years) ≥44 (Median)
[15] = 400 mg TID, Baseline BHRA BHRA+
[16] = 400 mg TID, Baseline BHRA BHRA−
[17] = 400 mg TID, Baseline Eosinophils (10^9/L) <0.150
[18] = 400 mg TID, Baseline Eosinophils (10^9/L) <0.165 (Median)
[19] = 400 mg TID, Baseline Eosinophils (10^9/L) <0.3
[20] = 400 mg TID, Baseline Eosinophils (10^9/L) ≥0.150
[21] = 400 mg TID, Baseline Eosinophils (10^9/L) ≥0.165 (Median)
[22] = 400 mg TID, Baseline Eosinophils (10^9/L) ≥0.3
[23] = 400 mg TID, Baseline H1-antihistamines dose 1-fold
[24] = 400 mg TID, Baseline H1-antihistamines dose 2 to 4-fold standard dose

Structure (SMILES): CC(C)(C=C(C#N)C(=O)N1CCC[C@@H](n2nc(-c3ccc(Oc4ccccc4)cc3F)c3c(N)ncnc32)C1)N1CCN(C2COC2)CC1 [rilzabrutinib, (R)-2-[3-[4-amino-3-(2-fluoro-4-phenoxy-phenyl)pyrazolo[3,4-d]pyrimidin-1-yl]piperidine-1-carbonyl]-4-methyl-4-[4-(oxetan-3-yl)piperazin-1-yl]pent-2-enenitrile]
- Change from Baseline in ISS7 at Week 12, LS Mean [1]: −4.83
- Change from Baseline in ISS7 at Week 12, LS Mean Diff vs. placebo [1]: −1.18
- Change from Baseline in ISS7 at Week 12, Mean [1]: −5.46
- Change from Baseline in ISS7 at Week 12, LS Mean [2]: −0.20
- Change from Baseline in ISS7 at Week 12, LS Mean Diff vs. placebo [2]: 3.49
- Change from Baseline in ISS7 at Week 12, Mean [2]: −3.29
- Change from Baseline in ISS7 at Week 12, LS Mean (400 mg QPM, Ethnicity Hispanic): −4.19
- Change from Baseline in ISS7 at Week 12, LS Mean Diff vs. placebo (400 mg QPM, Ethnicity Hispanic): 2.82
- Change from Baseline in ISS7 at Week 12, Mean (400 mg QPM, Ethnicity Hispanic): −5.04
- Change from Baseline in ISS7 at Week 12, LS Mean [3]: −5.29
- Change from Baseline in ISS7 at Week 12, LS Mean Diff vs. placebo [3]: −0.82
- Change from Baseline in ISS7 at Week 12, Mean [3]: −6.12
- Change from Baseline in ISS7 at Week 12, Mean (400 mg QPM, Gender Female): −5.86
- Change from Baseline in ISS7 at Week 12, Mean (400 mg QPM, Gender Male): −5.20
- Change from Baseline in ISS7 at Week 12, LS Mean [4]: −4.56
- Change from Baseline in ISS7 at Week 12, LS Mean Diff vs. placebo [4]: 0.78
- Change from Baseline in ISS7 at Week 12, Mean [4]: −5.32
- Change from Baseline in ISS7 at Week 12, LS Mean [5]: −5.00
- Change from Baseline in ISS7 at Week 12, LS Mean Diff vs. placebo [5]: 0.25
- Change from Baseline in ISS7 at Week 12, Mean [5]: −6.31
- ISS7 at Week 12, Mean (400 mg QPM, ITT population): 11.37
- ISS7 at Week 12, Median (400 mg QPM, ITT population): 11.20
- ISS7 change from baseline at Week 12, Mean (400 mg QPM, ITT population): −5.95
- ISS7 change from baseline at Week 12, Median (400 mg QPM, ITT population): −5.67
- ISS7 change from baseline at Week 12, LS Mean (400 mg QPM, ITT population): −5.46 points
- ISS7 change from baseline at Week 12, LS Mean Diff vs. placebo (400 mg QPM, ITT population): 0.85
- Change from Baseline in ISS7 at Week 12, LS Mean [6]: −4.94
- Change from Baseline in ISS7 at Week 12, LS Mean Diff vs. placebo [6]: −1.48
- Change from Baseline in ISS7 at Week 12, Mean [6]: −5.66
- Change from Baseline in ISS7 at Week 12, LS Mean (400 mg QPM, Race White): −4.41
- Change from Baseline in ISS7 at Week 12, LS Mean Diff vs. placebo (400 mg QPM, Race White): 1.60
- Change from Baseline in ISS7 at Week 12, Mean (400 mg QPM, Race White): −5.70
- Change from Baseline in ISS7 at Week 12, LS Mean (400 mg QPM, Region Asia): −5.17
- Change from Baseline in ISS7 at Week 12, LS Mean Diff vs. placebo (400 mg QPM, Region Asia): −1.72
- Change from Baseline in ISS7 at Week 12, Mean (400 mg QPM, Region Asia): −5.66
- Change from Baseline in ISS7 at Week 12, LS Mean [7]: −4.74
- Change from Baseline in ISS7 at Week 12, LS Mean Diff vs. placebo [7]: 7.93
- Change from Baseline in ISS7 at Week 12, Mean [7]: −5.54
- Change from Baseline in ISS7 at Week 12, LS Mean [8]: −5.19
- Change from Baseline in ISS7 at Week 12, LS Mean Diff vs. placebo [8]: 1.40
- Change from Baseline in ISS7 at Week 12, Mean [8]: −6.51
- Change from Baseline in ISS7 at Week 12, LS Mean [9]: −3.02
- Change from Baseline in ISS7 at Week 12, LS Mean Diff vs. placebo [9]: 1.53
- Change from Baseline in ISS7 at Week 12, Mean [9]: −4.61
- ISS7 at Week 12, Median [10]: 11.60
- ISS7 change from baseline at Week 12, Mean [10]: −5.69
- ISS7 change from baseline at Week 12, Median [10]: −5.33
- ISS7 at Week 12, Median [11]: 11.60
- ISS7 change from baseline at Week 12, Mean [11]: −5.69
- ISS7 change from baseline at Week 12, Median [11]: −5.33
- ISS7 change from baseline at Week 12, LS Mean [11]: −5.29 points
- ISS7 change from baseline at Week 12, LS Mean Diff vs. placebo [11]: 0.42
- ISS7 change from baseline at Week 12, LS Mean [10]: −5.19 points
- ISS7 change from baseline at Week 12, LS Mean Diff vs. placebo [10]: 0.58
- patients with improvement in the weekly ISS7 (400 mg TID arm): all patients except one showed improvement
- Change from Baseline in ISS7 at Week 12, LS Mean [12]: −9.04
- Change from Baseline in ISS7 at Week 12, LS Mean Diff vs. placebo [12]: −4.56
- Change from Baseline in ISS7 at Week 12, LS Mean [13]: −8.63
- Change from Baseline in ISS7 at Week 12, LS Mean Diff vs. placebo [13]: −2.97
- Change from Baseline in ISS7 at Week 12, Mean [13]: −9.73
- Change from Baseline in ISS7 at Week 12, LS Mean [14]: −9.26
- Change from Baseline in ISS7 at Week 12, LS Mean Diff vs. placebo [14]: −2.66
- Change from Baseline in ISS7 at Week 12, Mean [14]: −10.16
- Change from Baseline in ISS7 at Week 12, Mean (400 mg TID, Age group (years) ≥65): −13.50
- Change from Baseline in ISS7 at Week 12, LS Mean [15]: −12.96
- Change from Baseline in ISS7 at Week 12, LS Mean Diff vs. placebo [15]: −7.58
- Change from Baseline in ISS7 at Week 12, Mean [15]: −12.42
- Change from Baseline in ISS7 at Week 12, LS Mean [16]: −8.82
- Change from Baseline in ISS7 at Week 12, Mean [16]: −9.91
- Change from Baseline in ISS7 at Week 12, LS Mean Diff vs. placebo (400 mg TID, Baseline BMI (kg/m^2) ≥30): −3.19
- Change from Baseline in ISS7 at Week 12, LS Mean [17]: −10.28
- Change from Baseline in ISS7 at Week 12, LS Mean Diff vs. placebo [17]: −3.50
- Change from Baseline in ISS7 at Week 12, LS Mean [18]: −10.22
- Change from Baseline in ISS7 at Week 12, LS Mean Diff vs. placebo [18]: −3.71
- Change from Baseline in ISS7 at Week 12, Mean [18]: −10.99
- Change from Baseline in ISS7 at Week 12, LS Mean [19]: −9.46
- Change from Baseline in ISS7 at Week 12, LS Mean Diff vs. placebo [19]: −3.99
- Change from Baseline in ISS7 at Week 12, Mean [19]: −10.61
- Change from Baseline in ISS7 at Week 12, LS Mean [20]: −8.30
- Change from Baseline in ISS7 at Week 12, LS Mean Diff vs. placebo [20]: −4.31
- Change from Baseline in ISS7 at Week 12, LS Mean [21]: −8.24
- Change from Baseline in ISS7 at Week 12, LS Mean Diff vs. placebo [21]: −4.16
- Change from Baseline in ISS7 at Week 12, Mean [21]: −9.55
- Change from Baseline in ISS7 at Week 12, LS Mean [22]: −8.12
- Change from Baseline in ISS7 at Week 12, LS Mean Diff vs. placebo [22]: −3.27
- Change from Baseline in ISS7 at Week 12, Mean [22]: −8.68
- Change from Baseline in ISS7 at Week 12, LS Mean [23]: −8.05
- Change from Baseline in ISS7 at Week 12, LS Mean Diff vs. placebo [23]: −1.22
- Change from Baseline in ISS7 at Week 12, Mean [23]: −8.88
- Change from Baseline in ISS7 at Week 12, LS Mean [24]: −11.00
- Change from Baseline in ISS7 at Week 12, LS Mean Diff vs. placebo [24]: −7.52
